Measured values taken from patent US20120053119A1, “THERAPEUTIC METHOD FOR INCREASING PANCREATIC BETA CELL MASS” (priority 2009, published 2012).

Legend:
Assay type in all cases: cell-based
[1] = system: GLP-1 receptor (GLP-1R) mRNA; assay: GLP-1R mRNA by RT-PCR in alphaTC-1 cells; details: SDF-1 10 nM, by 4 hrs
Experimental: FIG. 21. SDF-1 induces the expression of the GLP-1 receptor (GLP-1R) mRNA in alphaTC-1 cells. […] RNA levels were determined by RT-PCR.

Wnt target genes = assay: Wnt signaling pathway-focused microarray (SuperArray) of INS-1 cells treated with SDF-1; details: 4 hrs
Experimental: FIG. 8. Wnt signaling focused array analysis. INS-1 cells were stimulated by SDF-1 (10 nM) for 4 hr. Total RNA was isolated and biotin-labeled complementary RNAs were generated. The Wnt signaling pathway-focused microarray filters (SuperArray Bioscience) were hybridzed with these biotin-labeled targets at 60 degree overnight. The filters were washed and subsequently incubated with alkaline phosphatase-conjugated streptavidin and CDP-substrate. The chemiluminescent images were captured. For quantification, the spot intensity was measured and normalized to the value of the housekeeping gene GADPH. Shown is a representative image of the focused array.
Gene expression profiling on focused microarrays INS-1 cells were untreated or treated with 10 nM SDF-1 for 4 hrs. Total RNA was isolated and Biotin-labeled complimentary RNAs were generated using the TrueLabeling-AMP Linear RNA Amplification Kit (SuperArray Bioscience Corp.) The Wnt-signaling pathway-focused microarray filters (118 probes) (SuperArray Bioscience Corp.) were hybridized with these biotin-labeled targets (5 microg/array at 60 C overnight. The filters were washed and subsequently incubated with alkaline phosphatase-conjugated streptavidin and CDPStar substrate. The Chemiluminescent images were captured using Kodak Digital Station 440 (Perkin Elmer). For quantification, the spot intensity was measured and normalized to the value of the housekeeping gene GAPDH. Fold-changes in gene expression levels were determined by comparisons of hybridization densities of SDF-1 treated versus untreated INS-1 cells. Real time RT-PCR was carried out by using the SYBR® Green QPCR kit (Stratagene). Briefly, INS-1 cells were treated with 10 nM SDF-1 or PBS vehicle control for 4 h. Total RNA was reverse-transcribed to cDNA using Super-Script II reverse transcriptase (Invitrogen). Real-time PCR was performed to amplify cyclin D1 and beta-catenin.
The expression of transcripts in INS-1 cells in response to SDF-1 (10 nM, 4 hrs) was determined on focused arrays of genes expressed in the Wnt signaling pathway. […] This finding is consistent with the down-regulation of genes expressing components of the beta-catenin destruction box involved in the degradation of beta-catenin that occurs in the absence of active Wnt signaling; for example, axin, glycogen synthase kinase-3 (Gsk3) and casein kinase 1 (Csnk1). These findings are consistent with the mechanism of Wnt/Fz-induced signaling involving Galphai/o activation of disheveled (Dv1) and the inhibition of the destruction box enzymes GSK3 and Csnk1 that destabilize and degrade betacatenin.

mouse islets = assay: GLP-1 production in mouse islets ex vivo, radioimmunoassay; details: batches of 50 islets, medium 1 and 4 hours, lysate 4 hr; SDF-1 10 nM
Experimental: FIG. 37. Cytokines and SDF-1 stimulate GLP-1 production in mouse islets ex vivo. Batches of 50 islets were treated with control, cytokine mixture, or 10 nM SDF-1. Medium was collected in 1 hr and 4 hr. Islet lysate was collected in 4 hr. GLP-1. Immunoreactive protein was measured by radioimmunoassay.
Batches of 50 islets were treated with a control vehicle, a cytokine mixture, or 10 nM SDF-1. Medium was collected from each batch at 1 hour and 4 hours, and islet lysate was collected in 4 hr. the concentration of GLP-1 contained in each sample collected was measured by radioimmunoassay of the immunoreactive protein.

Wnt signaling = Wnt signaling luciferase reporter assay (TOPflash/FOPflash) in INS-1 cells; details: dose response
Experimental: Wnt signaling is indicated by the value of TOPflash luciferase activity divided by FOPflash activity. A. Time course of the TOPflash:FOPflash ratio of INS-1 cell treated with 1 nM SDF-1. B. Ratio of TOPflash to FOPflash activity in INS-1 cells treated with increasing doses of SDF-1. C. […] All values are relative to the value of the untreated INS-1 cells. Data are normalized for transfection efficiency by co-transfected beta-galactosidase and represent means±S.D. of three experiments.
All values are relative to the first (leftmost) bar. Statistical significance is depicted as * (p<0.05) when compared with control values (leftmost bar). Data are normalized for transfection efficiency by co-transfected beta-galactosidase and represent means±S.D. of three experiments.
Wnt Signaling Luciferase Reporter Assay (TOPflash) INS-1 cells were plated into 24-well dishes 24 hr before transfection with TOPflash or the mutant, control reporter, FOPflash (1 microg/well) using LipofectAMINE2000 (Invitrogen). Various concentrations of SDF-1 or AMD3100 were then added to the culture medium 24 h following transfection for the indicated period of time. In studies in which inhibitors were used, LY294002 (50 microM), PD98059 (10 microM) or SH-5 (10 nM) were added concomitantly with SDF-1. In studies in which wild-type (wt), dominant-negative (dn) or contitutively-active (ca) forms of kinase were used, dnTCF7L2, dnGSK3beta, caGSK3beta, dnAkt, or caAkt (0.5 microg/well) was cotransfected with TOPflash. Luciferase activity in transfected cells was determined with a luciferase assay kit (Promega).
We examined SDF-1 induction of Wnt signaling using a Wnt signaling reporter assay (TOPflash/FOPflash). The TOPflash and FOPflash constructs contain the luciferase reporter either under the control of consensus TCF7L2-binding sites or mutated TCF7L2-binding sites, respectively. Luciferase activity was measured during 4 hr after addition of 1 nM SDF-1 (FIG. 3A).

INS-1 cells = assay: MTT assay of cell growth; details: serum starved, SDF-1 10 nM, 48 hr
Experimental: FIG. 6. Inhibition of apoptosis by SDF-1 in INS-1 and MIN-6 cells is reversed by knock-down of betacatenin. A. Western blot analysis of extracts from MIN6 cells that were mock treated, thapsigargin-treated (1 μM) and/or siRNA transfected (0.25 mg/ml), by using anti-serum against cleaved caspase-3 (upper panel), anti-serum against cleaved PARP (middle panel) and actin antibody (lower panel) as a loading control. B. Caspase-3 activity (fluorescence/mg proteinx105) of INS-1 or MIN6 cells mock treated, thapsigargin-treated (1 μM) and/or siRNA transfected (0.25 mg/ml). Results are presented as mean±SD for n=3 independent experiments, All values are relative to the first (leftmost) bar. Statistical significance is depicted as * (p<0.05) when compared with control values (leftmost bar) and # (<0.05) when compared with […] thapsigargin treatment. C. Representative images are shown for TUNEL staining of INS-1 cells of n=3 independent experiments. Quantification of apoptotic cells is expressed as percent apoptotic cells relative to the total cells counted (lower left panel). D. The proliferation rates of INS-1 cells after SDF-1 or Exd4 treatment are presented as relative BrdU and MTT incorporation values compared to that of control treated cells. […]
MTT Assay Growth of INS-1 cells was determined by the MTT system. […]

SDF-1: small, secreted 70 amino acid peptide chemokine, SEQ ID NO: 1, ligand of CXCR4
GLP-1R mRNA expression [1]: induces the expression of GLP-1R | mRNA fold change by SDF-1 (Wnt target genes; gene Axin1, SDF-1 10 nM): −2.58 fold | mRNA fold change by SDF-1 (Wnt target genes; gene Ccnd1 (Cyclin D1), SDF-1 10 nM): 1.48 fold | mRNA fold change by SDF-1 (Wnt target genes; gene Ccnd2 (Cyclin D2), SDF-1 10 nM): −2.29 fold | mRNA fold change by SDF-1 (Wnt target genes; gene Csnk2a1 (Casein kinase II, Alpha1), SDF-1 10 nM): −1.42 fold | mRNA fold change by SDF-1 (Wnt target genes; gene Csnk2b (Casein kinase 2, beta subunit), SDF-1 10 nM): −3.03 fold | mRNA fold change by SDF-1 (Wnt target genes; gene Ctbp1 (C-terminal binding protein 1), SDF-1 10 nM): −2.32 fold | mRNA fold change by SDF-1 (Wnt target genes; gene Ctnnb1 (Catenin (cadherin associated protein), beta 1), SDF-1 10 nM): 1.99 fold | mRNA fold change by SDF-1 (Wnt target genes; gene Cxxc4 (CXXC finger 4), SDF-1 10 nM): −1.43 fold | mRNA fold change by SDF-1 (Wnt target genes; gene Dvl1 (Dishevelled, dsh homolog 1), SDF-1 10 nM): −1.92 fold | mRNA fold change by SDF-1 (Wnt target genes; gene Fosl1 (Fos-like antigen 1), SDF-1 10 nM): 1.72 fold | mRNA fold change by SDF-1 (Wnt target genes; gene Foxn1 (Forkhead box N1), SDF-1 10 nM): 1.66 fold | mRNA fold change by SDF-1 (Wnt target genes; gene Fshb (Follicle stimulating hormone beta), SDF-1 10 nM): 1.69 fold | mRNA fold change by SDF-1 (Wnt target genes; gene Fzd2 (Frizzled homolog 2), SDF-1 10 nM): 1.43 fold | mRNA fold change by SDF-1 (Wnt target genes; gene Gsk3a (Glycogen synthase kinase 3 alpha), SDF-1 10 nM): −1.67 fold | mRNA fold change by SDF-1 (Wnt target genes; gene Gsk3b (Glycogen synthase kinase 3 beta), SDF-1 10 nM): −1.51 fold | mRNA fold change by SDF-1 (Wnt target genes; gene Lrp5_predicted (Low density lipoprotein receptor-related protein 5), SDF-1 10 nM): 1.72 fold | mRNA fold change by SDF-1 (Wnt target genes; gene Myc, SDF-1 10 nM): −2.55 fold | mRNA fold change by SDF-1 (Wnt target genes; gene Ppp2cb (Protein phosphatase 2, catalytic subunit, beta isoform), SDF-1 10 nM): −2.12 fold | mRNA fold change by SDF-1 (Wnt target genes; gene Ppp2r1b (Protein phosphatase 2, regulatory subunit A (PR 65), beta isoform), SDF-1 10 nM): −1.71 fold | mRNA fold change by SDF-1 (Wnt target genes; gene Rhoa (Ras homolog gene family, member A), SDF-1 10 nM): −1.32 fold | mRNA fold change by SDF-1 (Wnt target genes; gene Slc9a3r1 (Solute carrier family 9, isoform 3 regulator 1), SDF-1 10 nM): 1.43 fold | mRNA fold change by SDF-1 (Wnt target genes; gene Tcfe2a (Transcription factor E2a), SDF-1 10 nM): 1.61 fold | mRNA fold change by SDF-1 (Wnt target genes; gene Wif1 (Wnt inhibitory factor 1), SDF-1 10 nM): −1.92 fold | mRNA fold change by SDF-1 (Wnt target genes; gene Wnt7b (Wingless-related MMTV integration site 7B), SDF-1 10 nM): 1.59 fold | production of GLP-1 by mouse islets (mouse islets): induces the production of GLP-1 | SDF-1 concentration giving maximum Wnt signaling response (TOPflash/FOPflash) (Wnt signaling): 0.4 nM | effect on proliferation of INS-1 cells, MTT assay (INS-1 cells): no detectable effects
